Test results reported in article PMC8513058, “Synthesis and Evaluation of Novel 1,2,6-Thiadiazinone Kinase Inhibitors as Potent Inhibitors of Solid Tumors” (Molecules, 2021).

How the values were obtained:
U-CH2 cells = test: Cancer cell line viability screen (alamarBlue), UCH2; conditions: UCH2, 72 h, read-out: IC50 UCH2
Procedure: (§1) This included pancreatic, bladder, prostate, breast, chordoma, and lung cancer cell lines while a skin fibroblast cell line was used as a toxicity control [33, 34, 35, 36].
(§2) Cells were seeded in 384-well plates and were treated with test compound in quadruplicate 24 h after plating. Cell viability was assessed at 72 h using alamarBlue (ThermoFisher, Waltham, MA, USA). […] IC50 values were determined by nonlinear regression using GraphPad PrismTM software (GraphPad Software Inc., San Diego, CA, US).

WS-1 cell line = test: Toxicity control viability screen (alamarBlue), WS-1 skin fibroblasts; conditions: for IC50: WS1, 72 h, read-out: IC50 WS-1
Procedure: as §1
(§3) DU145 and MCF-7 cells were cultured in MEM medium supplemented with 10% FBS and 1% penicillin/streptomycin. […] Cells were seeded in 384-well plates and were treated with test compound in quadruplicate 24 h after plating. Cell viability was assessed at 72 h using alamarBlue (ThermoFisher, Waltham, MA, USA). […] IC50 values were determined by nonlinear regression using GraphPad PrismTM software (GraphPad Software Inc., San Diego, CA, US).

5637 cells = test: Cancer cell line viability screen (alamarBlue), 5637; conditions: 72 h, read-out: IC50 5637
Procedure: as §1, §3

MCF-7 cells = test: Cancer cell line viability screen (alamarBlue), MCF7; conditions: Homo sapiens, MCF7, 72 h, read-out: IC50 MCF7
Procedure: as §1, §3

A-431 cells = test: Cancer cell line viability screen (alamarBlue), A431; conditions: Homo sapiens, A-431, 72 h, read-out: IC50 A431
Procedure: as §1, §2

U-CH1 cells = test: Cancer cell line viability screen (alamarBlue), UCH1; conditions: UCH1, 72 h, read-out: IC50 UCH1
Procedure: as §1, §2

PANC-1 cells = test: Cancer cell line viability screen (alamarBlue), PANC1; conditions: Homo sapiens, PANC-1, 72 h, read-out: IC50 PANC1
Procedure: as §1, §3

DU145 cells = test: Cancer cell line viability screen (alamarBlue), DU145; conditions: Homo sapiens, DU-145, 72 h, read-out: IC50 DU145
Procedure: as §1, §3

[1] = system: kinases in SUM159 cell lysates; test: MIBS kinome profiling (MIB-MS competitive displacement); assay type: binding; conditions: 1 μM compound vs DMSO, SUM159 lysate; for kinome profile: 350-400 kinases detected
Procedure: We then assessed the kinome profile of thiadiazinones 16, 17, and 26 all at 1 μM using a multiplexed kinase inhibitor bead set and quantitative mass spectrometry for detection of kinase peptides (MIB-MS). The MIB-MS proteomics was able to detect between 350 and 400 kinases in the cell lysates and competitive displacement of specific kinases from the beads was used to determine the kinome profile of the thiadiazinone kinase inhibitors.
Previously described. Briefly, multiplexed inhibitor beads (MIBS) affinity chromatography/MS analysis: SUM159 cells were cultured in a 50:50 mixture of DMEM and Nutrient Mixture F-12 medium (Gibco) supplemented with 5% fetal bovine serum, 1% anti/anti, […] insulin, and […] hydrocortisone. Cells were maintained at 37 °C in a humidified 5% CO2 atmosphere. SUM159 cells were grown to 80% confluency, washed twice with PBS, and harvested by scraping cells in lysis buffer [50 mM HEPES, pH 7.5, 150 mM NaCl, 0.5% Triton X-100, 1 mM EDTA, 1 mM EGTA, 10 mM NaF, 2.5 mM Na3VO4, complete protease inhibitor cocktail (Roche, Basel, Switzerland), phosphatase inhibitor cocktail 2, and 3 (Sigma, St. Louis, MO, USA)]. Lysates were sonicated then clarified by centrifugation at 14000 V g for 15 min at 4 °C. Lysate was then filtered through a […] syringe filter and frozen at −80 °C until use. Protein concentration was quantified using a Bradford assay the day of the experiment. DMSO or the indicated concentration of 16, 17, and 26 were added to lysate containing 4 mg of total protein. Lysates were vortexed briefly then incubated for 30 min on ice. Kinases were affinity purified as previously described. Briefly, lysates were diluted to 1.33 mg mL^−1 with lysis buffer then NaCl concentration brought to 1 M.
Diluted lysates were passed over a mixture of […] of settled beads of each of the following inhibitors conjugated to ECH Sepharose beads: Purvalanol B, PP58, VI-16832, UNC21474A, UNC8088A, and […] of settled beads conjugated to CTx-0294885 and VI-16832 [69]. The kinase inhibitor–bead conjugates were previously equilibrated in high-salt buffer (50 mM HEPES pH 7.5, 1M NaCl, 0.5% Triton X-100, 1 mM EDTA, and 1 mM EGTA). MIBs columns were sequentially washed with high-salt buffer, low-salt buffer (50 mm HEPES pH 7.5, 150 mM NaCl, 0.5% Triton X-100, 1 mM EDTA, and 1 mM EGTA), and SDS buffer (50 mm HEPES pH 7.5, 150 mm NaCl, 0.5% Triton X-100, 1 mm EDTA, 1 mm EGTA, and 0.1% SDS). Proteins were eluted by boiling samples in elution buffer (100 mM Tris·HCl pH 6.8, 0.5% SDS, and 1% β-mercaptoethanol) for 15 min twice. Dithiothreitol (DTT) was added to a final concentration of 5 mm and samples were incubated at 60 °C for 25 min. Samples were then cooled to room temperature on ice and alkylated by adding iodoacetamide to a final concentration of 20 mm for 30 min in the dark at room temperature. Samples were then concentrated in 10K Amicon Ultra centrifugal concentrators (Millipore, Burlington, MA, USA) followed by methanol and chloroform precipitation of proteins. The final protein pellets were re-suspended in 50 mM HEPES pH 8.0 and incubated with trypsin at 37 °C overnight. Residual detergent was removed by three sequential ethyl acetate extractions then desalted using Pierce C18 spin columns (Thermo Scientific, Waltham, MA, USA) according to the manufacturer’s protocol.

[2] = design: method as in PMID 29783765; conditions: previously assessed; cited from earlier work

SMILES	IC50 (U-CH2 cells) [µM]	IC50 (5637 cells) [µM]	IC50 (MCF-7 cells) [µM]	IC50 (A-431 cells) [µM]	IC50 (U-CH1 cells) [µM]	IC50 (PANC-1 cells) [µM]	IC50 (DU145 cells) [µM]	melting point	IC50 (WS-1 cell line) [µM]	kinases competitively displaced from the beads (hits) [1]	kinome profile [1]	stability [2]	IC50 WS-1 (WS-1 cell line; skin fibroblast cell line, toxicity control, viability at 72 h, alamarBlue, average of 4 independent experiments)
Cc1ccc(Nc2nsnc(-c3ccnc4[nH]ccc34)c2=O)cc1O [Compound 17, 3-[(3-Hydroxy-4-methylphenyl)amino]-5-(1H-pyrrolo[2,3-b]pyridin-4-yl)-4H-1,2,6-thiadiazin-4-one]	> 100	2.1	14	> 100	> 100	> 100	23	292 to 293 °C	> 100	AKT2, MAP2K4, MAP2K1, and STK35 being just below the threshold	narrow spectrum kinome profile		
CN1CCN(c2nsnc(Nc3ccnc4[nH]ccc34)c2=O)CC1 [Compound 21, 5-(4-Methylpiperazin-1-yl)-3-[(1H-pyrrolo[2,3-b]pyridin-4-yl)amino]-4H-1,2,6-thiadiazin-4-one]	> 100	> 100	> 100	> 100	97	> 100	51	286 to 287 °C	> 100				
Cc1ccc(O)cc1Nc1nsnc(-c2ccnc3[nH]ccc23)c1=O [Compound 18, 3-[(5-Hydroxy-2-methylphenyl)amino]-5-(1H-pyrrolo[2,3-b]pyridin-4-yl)-4H-1,2,6-thiadiazin-4-one]	> 100	55	> 100	> 100	> 100	> 100	> 100	304 to 305 °C	> 100				
O=c1c(-c2ccnc3[nH]ccc23)nsnc1N1CCOCC1 [Compound 19, 3-Morpholino-5-(1H-pyrrolo[2,3-b]pyridin-4-yl)-4H-1,2,6-thiadiazin-4-one]	> 100	> 100	46	> 100	> 100	11	14	256 to 257 °C	> 100				
CN1CCN(c2nsnc(-c3ccnc4[nH]ccc34)c2=O)CC1 [Compound 20, 3-(4-Methylpiperazin-1-yl)-5-(1H-pyrrolo[2,3-b]pyridin-4-yl)-4H-1,2,6-thiadiazin-4-one]		> 100	> 100			> 100	> 100	195 to 196 °C					
CC(=O)c1cccc(Nc2nsnc(-c3ccnc4[nH]ccc34)c2=O)c1 [Compound 14, 3-[(3-Acetylphenyl)amino]-5-(1H-pyrrolo[2,3-b]pyridin-4-yl)-4H-1,2,6-thiadiazin-4-one]	> 100	15	> 100	> 100	58	> 100	> 100	271 to 273 °C	92				
O=c1c(Nc2ccccc2)nsnc1Nc1ccccc1 [3,5-Bis(phenylamino)-4H-1,2,6-thiadiazin-4-one]												stable to neutral, acidic, or slightly basic aqueous conditions, the presence of amine or thiol nucleophiles, and oxidizing and reducing conditions	

The next lines start with results.

IC50 (U-CH2 cells) [µM]	IC50 (5637 cells) [µM]	IC50 (MCF-7 cells) [µM]	IC50 (A-431 cells) [µM]	IC50 (U-CH1 cells) [µM]	IC50 (PANC-1 cells) [µM]	IC50 (DU145 cells) [µM]	melting point	SMILES	IC50 (WS-1 cell line) [µM]	kinases competitively displaced from the beads (hits) [1]	kinome profile [1]	stability [2]	IC50 WS-1 (WS-1 cell line; skin fibroblast cell line, toxicity control, viability at 72 h, alamarBlue, average of 4 independent experiments)
> 100	> 100	92	> 100	71	> 100	84	282 to 283 °C	O=c1c(Nc2ccc3[nH]ncc3c2)nsnc1-c1cccc(O)c1 [Compound 23, 5-(3-Hydroxyphenyl)-3-[(1H-indazol-5-yl)amino]-4H-1,2,6-thiadiazin-4-one]	> 100				
> 100	> 100	25	> 100	> 100	> 100	50	262 to 263 °C	CN1CCN(c2nsnc(Nc3ccc4[nH]ncc4c3)c2=O)CC1 [Compound 22, 3-[(1H-Indazol-5-yl)amino]-5-(4-methylpiperazin-1-yl)-4H-1,2,6-thiadiazin-4-one]	24				
> 100	15	> 100	> 100	67	> 100	> 100	257 to 258 °C	COc1cccc(Nc2nsnc(-c3ccnc4[nH]ccc34)c2=O)c1 [Compound 15, 3-[(3-Methoxyphenyl)amino]-5-(1H-pyrrolo[2,3-b]pyridin-4-yl)-4H-1,2,6-thiadiazin-4-one]	> 100				
99	13	38	> 100	52	> 100	> 100	220 to 221 °C	COc1cccc(-c2nsnc(Nc3ccc4[nH]ncc4c3)c2=O)c1 [Compound 25, 3-[(1H-Indazol-5-yl)amino]-5-(3-methoxyphenyl)-4H-1,2,6-thiadiazin-4-one]	71				
> 100	8.4	50	> 100	84	> 100	5.7	280 °C (dec.)	O=c1c(Nc2ccc3[nH]ncc3c2)nsnc1-c1ccnc(F)c1 [Compound 26, 5-(2-Fluoropyridin-4-yl)-3-[(1H-indazol-5-yl)amino]-4H-1,2,6-thiadiazin-4-one]	> 100	showing affinity for ACVR1B, ACVR2A, and STK35	narrow spectrum kinome profile but was a weak inhibitor		
> 100	> 100	13	> 100	67	26	15	268 to 269 °C	Cc1ccc(O)cc1-c1nsnc(Nc2ccc3[nH]ncc3c2)c1=O [Compound 24, 5-(5-Hydroxy-2-methylphenyl)-3-[(1H-indazol-5-yl)amino]-4H-1,2,6-thiadiazin-4-one]	> 100				no toxicity
